Experimental data published in PubChem BioAssay (NCI).
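Results reflect a 48-hour exposure of cells in 96-well plates to compound at five concentrations. GI50 is the concentration that inhibits growth by half. TGI is the concentration that stops growth completely.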

Columns and labels:
Assay in all cases: NCI tumour cell line growth inhibition, 48 h
786-0 renal = system: 786-0 renal
A549 NSCLC = system: A549 NSCLC
ACHN renal = system: ACHN renal
BT-549 breast = system: BT-549 breast
CAKI-1 renal = system: CAKI-1 renal
CCRF-CEM leukemia = system: CCRF-CEM leukemia
COLO 205 colon = system: COLO 205 colon
DU-145 prostate = system: DU-145 prostate
EKVX NSCLC = system: EKVX NSCLC
HCC-2998 colon = system: HCC-2998 colon
HCT-116 colon = system: HCT-116 colon
HCT-15 colon = system: HCT-15 colon
HL-60(TB) leukemia = system: HL-60(TB) leukemia
HOP-62 NSCLC = system: HOP-62 NSCLC
HOP-92 NSCLC = system: HOP-92 NSCLC
HS 578T breast = system: HS 578T breast
HT29 colon = system: HT29 colon
IGROV1 ovarian = system: IGROV1 ovarian
K-562 leukemia = system: K-562 leukemia
KM12 colon = system: KM12 colon
LOX IMVI melanoma = system: LOX IMVI melanoma
M14 melanoma = system: M14 melanoma
MCF7 breast = system: MCF7 breast
MDA-MB-231 breast = system: MDA-MB-231 breast
MDA-MB-435 = system: MDA-MB-435
MDA-N = system: MDA-N
MOLT-4 leukemia = system: MOLT-4 leukemia
NCI-H226 lung = system: NCI-H226 lung
NCI-H23 lung = system: NCI-H23 lung
NCI-H460 lung = system: NCI-H460 lung
NCI-H522 lung = system: NCI-H522 lung
NCI/ADR-RES ovarian = system: NCI/ADR-RES ovarian
OVCAR-3 ovarian = system: OVCAR-3 ovarian
OVCAR-4 ovarian = system: OVCAR-4 ovarian
OVCAR-5 ovarian = system: OVCAR-5 ovarian
OVCAR-8 ovarian = system: OVCAR-8 ovarian
PC-3 prostate = system: PC-3 prostate
RPMI-8226 leukemia = system: RPMI-8226 leukemia
RXF 393 renal = system: RXF 393 renal
SF-268 CNS = system: SF-268 CNS
SF-295 CNS = system: SF-295 CNS
SF-539 CNS = system: SF-539 CNS
SK-MEL-2 melanoma = system: SK-MEL-2 melanoma
SK-MEL-28 melanoma = system: SK-MEL-28 melanoma
SK-MEL-5 melanoma = system: SK-MEL-5 melanoma
SK-OV-3 ovarian = system: SK-OV-3 ovarian
SN12C renal = system: SN12C renal
SNB-19 CNS = system: SNB-19 CNS
SNB-75 CNS = system: SNB-75 CNS
SW-620 colon = system: SW-620 colon
T-47D breast = system: T-47D breast
TK-10 renal = system: TK-10 renal
U251 CNS = system: U251 CNS
UACC-257 melanoma = system: UACC-257 melanoma
UACC-62 melanoma = system: UACC-62 melanoma
UO-31 renal = system: UO-31 renal
A498 renal = system: A498 renal
MALME-3M melanoma = system: MALME-3M melanoma

SMILES: O=C1c2ccccc2C(=Nc2ccc3ccccc3c2)C1(C1=C(c2ccccc2)C(=Nc2ccc3ccccc3c2)c2ccccc21)c1ccccc1 (stereo unspecified)
- TGI (786-0 renal): > 100 µM
- TGI (A549 NSCLC): > 100 µM
- TGI (ACHN renal): 15 µM
- TGI (BT-549 breast): 73.3 µM
- TGI (CAKI-1 renal): > 100 µM
- TGI (CCRF-CEM leukemia): > 100 µM
- TGI (COLO 205 colon): > 100 µM
- TGI (DU-145 prostate): > 100 µM
- TGI (EKVX NSCLC): > 100 µM
- TGI (HCC-2998 colon): > 63.4 µM
- TGI (HCT-116 colon): > 100 µM
- TGI (HCT-15 colon): > 23.8 µM
- TGI (HL-60(TB) leukemia): > 29 µM
- TGI (HOP-62 NSCLC): > 100 µM
- TGI (HOP-92 NSCLC): > 100 µM
- TGI (HS 578T breast): > 100 µM
- TGI (HT29 colon): > 100 µM
- TGI (IGROV1 ovarian): > 100 µM
- TGI (K-562 leukemia): > 43.5 µM
- TGI (KM12 colon): > 42.6 µM
- TGI (LOX IMVI melanoma): > 100 µM
- TGI (M14 melanoma): > 86.8 µM
- TGI (MCF7 breast): > 65.6 µM
- TGI (MDA-MB-231 breast): > 100 µM
- TGI (MDA-MB-435): > 87.3 µM
- TGI (MDA-N): > 59.1 µM
- TGI (MOLT-4 leukemia): 7.81 µM
- TGI (NCI-H226 lung): > 44.4 µM
- TGI (NCI-H23 lung): > 31.3 µM
- TGI (NCI-H460 lung): > 100 µM
- TGI (NCI-H522 lung): > 100 µM
- TGI (NCI/ADR-RES ovarian): > 100 µM
- TGI (OVCAR-3 ovarian): > 100 µM
- TGI (OVCAR-4 ovarian): > 100 µM
- TGI (OVCAR-5 ovarian): > 100 µM
- TGI (OVCAR-8 ovarian): > 94.1 µM
- TGI (PC-3 prostate): > 100 µM
- TGI (RPMI-8226 leukemia): 18.2 µM
- TGI (RXF 393 renal): > 100 µM
- TGI (SF-268 CNS): > 100 µM
- TGI (SF-295 CNS): > 100 µM
- TGI (SF-539 CNS): > 100 µM
- TGI (SK-MEL-2 melanoma): > 69.5 µM
- TGI (SK-MEL-28 melanoma): > 100 µM
- TGI (SK-MEL-5 melanoma): 7.47 µM
- TGI (SK-OV-3 ovarian): > 100 µM
- TGI (SN12C renal): > 100 µM
- TGI (SNB-19 CNS): > 100 µM
- TGI (SNB-75 CNS): > 70.4 µM
- TGI (SW-620 colon): > 100 µM
- TGI (T-47D breast): > 100 µM
- TGI (TK-10 renal): > 100 µM
- TGI (U251 CNS): > 100 µM
- TGI (UACC-257 melanoma): > 100 µM
- TGI (UACC-62 melanoma): > 53.5 µM
- TGI (UO-31 renal): 37 µM

SMILES: CN1CCCC1c1cccnc1.O=C(O)c1ccccc1O.O=C([O-])c1ccccc1[OH2+].O=C([O-])c1ccccc1[OH2+].O=C([O-])c1ccccc1[OH2+].[Cu+2] (stereo unspecified)
- GI50 (786-0 renal): > 100 µM
- TGI (786-0 renal): > 100 µM
- GI50 (A498 renal): 31.3 µM
- TGI (A498 renal): 76.1 µM
- GI50 (A549 NSCLC): 78.9 µM
- TGI (A549 NSCLC): > 100 µM
- GI50 (ACHN renal): > 100 µM
- TGI (ACHN renal): > 100 µM
- GI50 (BT-549 breast): > 100 µM
- TGI (BT-549 breast): > 100 µM
- GI50 (CAKI-1 renal): > 100 µM
- TGI (CAKI-1 renal): > 100 µM
- GI50 (CCRF-CEM leukemia): > 100 µM
- TGI (CCRF-CEM leukemia): > 100 µM
- GI50 (COLO 205 colon): > 100 µM
- TGI (COLO 205 colon): > 100 µM
- GI50 (DU-145 prostate): > 100 µM
- TGI (DU-145 prostate): > 100 µM
- GI50 (EKVX NSCLC): > 100 µM
- TGI (EKVX NSCLC): > 100 µM
- GI50 (HCT-116 colon): > 100 µM
- TGI (HCT-116 colon): > 100 µM
- GI50 (HCT-15 colon): > 100 µM
- TGI (HCT-15 colon): > 100 µM
- GI50 (HL-60(TB) leukemia): > 100 µM
- TGI (HL-60(TB) leukemia): > 100 µM
- GI50 (HOP-62 NSCLC): > 100 µM
- TGI (HOP-62 NSCLC): > 100 µM
- GI50 (HOP-92 NSCLC): > 100 µM
- TGI (HOP-92 NSCLC): > 100 µM
- GI50 (HS 578T breast): > 100 µM
- TGI (HS 578T breast): > 100 µM
- GI50 (HT29 colon): > 100 µM
- TGI (HT29 colon): > 100 µM
- GI50 (IGROV1 ovarian): 91.1 µM
- TGI (IGROV1 ovarian): > 100 µM
- GI50 (K-562 leukemia): > 100 µM
- TGI (K-562 leukemia): > 100 µM
- GI50 (KM12 colon): > 100 µM
- TGI (KM12 colon): > 100 µM
- GI50 (LOX IMVI melanoma): > 100 µM
- TGI (LOX IMVI melanoma): > 100 µM
- GI50 (M14 melanoma): > 100 µM
- TGI (M14 melanoma): > 100 µM
- GI50 (MALME-3M melanoma): > 100 µM
- TGI (MALME-3M melanoma): > 100 µM
- GI50 (MCF7 breast): 45.3 µM
- TGI (MCF7 breast): > 100 µM
- GI50 (MDA-MB-231 breast): > 100 µM
- TGI (MDA-MB-231 breast): > 100 µM
- GI50 (MDA-MB-435): > 100 µM
- TGI (MDA-MB-435): > 100 µM
- GI50 (MDA-N): > 100 µM
- TGI (MDA-N): > 100 µM
- GI50 (MOLT-4 leukemia): > 100 µM
- TGI (MOLT-4 leukemia): > 100 µM
- GI50 (NCI-H226 lung): > 100 µM
- TGI (NCI-H226 lung): > 100 µM
- GI50 (NCI-H23 lung): > 100 µM
- TGI (NCI-H23 lung): > 100 µM
- GI50 (NCI-H522 lung): > 100 µM
- TGI (NCI-H522 lung): > 100 µM
- GI50 (NCI/ADR-RES ovarian): > 100 µM
- TGI (NCI/ADR-RES ovarian): > 100 µM
- GI50 (OVCAR-3 ovarian): > 100 µM
- TGI (OVCAR-3 ovarian): > 100 µM
- GI50 (OVCAR-4 ovarian): 56.1 µM
- TGI (OVCAR-4 ovarian): > 100 µM
- GI50 (OVCAR-5 ovarian): > 100 µM
- TGI (OVCAR-5 ovarian): > 100 µM
- GI50 (OVCAR-8 ovarian): > 100 µM
- TGI (OVCAR-8 ovarian): > 100 µM
- GI50 (PC-3 prostate): > 100 µM
- TGI (PC-3 prostate): > 100 µM
- GI50 (RPMI-8226 leukemia): > 100 µM
- TGI (RPMI-8226 leukemia): > 100 µM
- GI50 (RXF 393 renal): > 100 µM
- TGI (RXF 393 renal): > 100 µM
- GI50 (SF-268 CNS): > 100 µM
- TGI (SF-268 CNS): > 100 µM
- GI50 (SF-295 CNS): > 100 µM
- TGI (SF-295 CNS): > 100 µM
- GI50 (SK-MEL-2 melanoma): > 100 µM
- TGI (SK-MEL-2 melanoma): > 100 µM
- GI50 (SK-MEL-28 melanoma): > 100 µM
- TGI (SK-MEL-28 melanoma): > 100 µM
- GI50 (SK-MEL-5 melanoma): 33.3 µM
- TGI (SK-MEL-5 melanoma): > 100 µM
- GI50 (SK-OV-3 ovarian): > 100 µM
- TGI (SK-OV-3 ovarian): > 100 µM
- GI50 (SN12C renal): > 100 µM
- TGI (SN12C renal): > 100 µM
- GI50 (SNB-19 CNS): 39.6 µM
- TGI (SNB-19 CNS): > 100 µM
- GI50 (SNB-75 CNS): > 100 µM
- TGI (SNB-75 CNS): > 100 µM
- GI50 (SW-620 colon): > 100 µM
- TGI (SW-620 colon): > 100 µM
- GI50 (T-47D breast): > 100 µM
- TGI (T-47D breast): > 100 µM
- GI50 (TK-10 renal): > 100 µM
- TGI (TK-10 renal): > 100 µM
- GI50 (U251 CNS): > 100 µM
- TGI (U251 CNS): > 100 µM
- GI50 (UACC-257 melanoma): > 100 µM
- TGI (UACC-257 melanoma): > 100 µM
- GI50 (UACC-62 melanoma): > 100 µM
- TGI (UACC-62 melanoma): > 100 µM
- GI50 (UO-31 renal): > 100 µM
- TGI (UO-31 renal): > 100 µM
